Entries after “also recorded” stand apart in the source; their conditions may differ.
Tests used:
[1] = test system: p53-Mdm2 complexes in cell lysates; experiment: BiLC assay using cell lysates, p53-Mdm2; type: biochemical; details: absence of FBS, RT 10 minutes, luminescence at 26 °C
[2] = test system: p53-Mdm4 complexes in cell lysates; experiment: BiLC assay using cell lysates, p53-Mdm4; type: biochemical; details: absence of FBS, RT 10 minutes, luminescence at 26 °C
[3] = test system: p53-Mdm4 complexes in Saos-2 p53-Mdm4 ReBiL cells; experiment: Real-time BiLC; type: cell-based; details: 37 °C; for disruption of preformed p53-Mdm4 complexes in living cells: pre-induced cells, doxycycline withdrawal, 10% FBS media
[4] = test system: Saos-2 cells (p53-null); experiment: CellTiter Glo cell viability assay, Saos-2; details: Saos-2 ReBiL cells, 6 hr, CellTiter Glo (Figure 5)
[5] = test system: Mdm2-Mdm4 N-terminal BiLC pair (U2OS Mdm4_111 - Mdm2_108 ReBiL cells); experiment: ReBiL assay of the Mdm2-Mdm4 N-terminal BiLC pair in living cells; type: cell-based; details: 500 ng/ml doxycycline, 24 hours, 37 °C
[6] = test system: Saos-2 cells; experiment: Lactate dehydrogenase; type: cell-based; details: absence of serum, 25 μM and 10 μM, 6 hr
[7] = biological target: p53-Mdm2 complexes in Saos-2 p53-Mdm2 ReBiL cells (Homo sapiens, UniProt Q00987); experiment: Real-time BiLC; type: cell-based; details: pre-induced cells, doxycycline withdrawal, 10% FBS media, 37 °C
p53-Mdm2 complexes in Saos-2 p53-Mdm2 ReBiL cells, sequence (Q00987 whole entry, one chain of several): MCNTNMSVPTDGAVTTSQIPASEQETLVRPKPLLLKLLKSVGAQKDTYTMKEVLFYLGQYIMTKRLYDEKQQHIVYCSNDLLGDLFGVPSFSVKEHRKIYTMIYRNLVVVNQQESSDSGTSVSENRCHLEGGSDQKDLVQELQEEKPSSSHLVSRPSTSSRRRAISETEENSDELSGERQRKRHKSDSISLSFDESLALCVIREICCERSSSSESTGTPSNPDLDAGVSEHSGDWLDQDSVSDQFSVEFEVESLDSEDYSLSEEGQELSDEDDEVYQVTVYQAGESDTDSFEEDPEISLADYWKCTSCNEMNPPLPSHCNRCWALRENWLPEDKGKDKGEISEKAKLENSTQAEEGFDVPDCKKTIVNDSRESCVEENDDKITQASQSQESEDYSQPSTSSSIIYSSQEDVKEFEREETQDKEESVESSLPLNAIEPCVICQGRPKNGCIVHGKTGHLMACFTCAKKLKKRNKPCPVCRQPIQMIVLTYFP

Compound	p53-Mdm2 disruption in lysate BiLC assay [1]	p53-Mdm4 disruption in lysate BiLC assay [2]	p53-Mdm4 BiLC signal (newly synthesized complexes) ([3]; doxycycline 500 ng/ml and compound added at Time = 0, 24-48 hr)	p53-independent cytotoxicity at high concentrations [4]	Mdm2-Mdm4 N-terminal domain BiLC signal (association) [5]	disruption of preformed p53-Mdm4 complexes in living cells [3]	LDH leakage / cell membrane damage [6]	disruption of preformed p53-Mdm2 complexes in living cells [7]
CCOc1cc(/C=C2/C(=O)N(c3ccccc3)N=C2C)cc(Cl)c1OCC(=O)OC [SJ-172550]	no activity	no activity	No decrease; also recorded: lacks p53-Mdm4 disruption activity	–	–	–	–	–
COc1ccc(C2=N[C@@H](c3ccc(Cl)cc3)[C@@H](c3ccc(Cl)cc3)N2C(=O)N2CCNC(=O)C2)c(OC(C)C)c1 [Nutlin-3a]	efficiently disrupted	–	–	induce p53-independent cytotoxicity	did not promote	not affected; also recorded: has no effect	did not induce membrane leakage	–
RO-5963	no activity	no activity	–	–	increased the BiLC signal; also recorded: enhances	no effect	–	limited ability to disrupt; also recorded: moderately reduces
